Laboratory results published in patent US20230035127A1, “CULTURE AND DIFFERENTIATION OF PLURIPOTENT STEM CELLS” (University of Maryland, College Park, priority 2021, published 2023).
Values joined by “and” are separate entries in the source; they are usually repeats but may differ in a detail not shown here. Equal entries are not always repeated.

Experiments:
human eiPSCs = test: 3D cardiac differentiation of eiPSC spheroids: percentage of beating cardiac spheroids and outset beating time; assay type: cell-based; details: for beating efficiency of 3D cardiac differentiation: PSCs
Experimental: Cardiac differentiation of the 3D eiPSC spheroids was conducted by modulating the canonical Wnt signaling pathway with agonists and antagonists sequentially, which has also been used for differentiation of human PSCs into cardiomyocytes under 2D culture. Two Wnt agonists, CHIR99021 (8 μM) and 6-bromoindirubin-3′-oxime (BIO, 2 μM), were supplemented into the culture medium on day 0, to up-regulate the Wnt signaling and induce iPSC differentiation into mesoderm for 1 day. On day 1, two Wnt antagonists, XAV939 (10 μM) and KY02111 (10 μM), were used to suppress the Wnt signaling for inducing cardiac commitment of the mesoderm cells in the following 6 days to obtain cardiac spheroids. Afterward, the cardiac spheroids were cultured in pure cardiac maintenance medium for maturation until day 13.5. […] In other words, the outset beating time (OBT) of the cardiac spheroids was synchronized to be within ˜24 h for the 1 μM RI group. No significant change in the beating percentage from day 7.5 to day 13.5 was observed. In contrast, in the 10 μM RI group, only ˜8% and ˜44% of cardiac spheroids beat on days 6.5 and 13.5, respectively (FIG. 4A, on day 13.5). […] Therefore, the OBT ranges over at least a week, indicating high heterogeneity of the cardiac spheroids in the 10 μM RI group as the beating is a direct and visible indicator of functional maturity of the cardiac spheroids.
To obtain 3D iPSC spheroids, the iPSC colonies under 2D culture at ˜80% confluence were treated with Versene for 2 min, rinsed with PBS, and further detached from the substrate by gentle pipetting. The detached iPSCs were re-suspended in mTeSR1 with Rock inhibitor (Y27632) at 0, 1, 5, or 10 μM. Afterward, the medium was supplemented with 0.35% (v/v) methylcellulose. The cell suspension (12 ml) containing ˜4×10^6 cells was pushed through a cell strainer with 100 μm mesh size. Later, the suspension of iPSC clumps was transferred into a petri dish (diameter: 10 cm) for culture in a humidified incubator at 37° C. and 5% CO2 for 2 days, during which the 2D iPSC clumps grew into 3D iPSC spheroids. Then, the medium was changed to mTeSR1 (supplemented with 0.35% methylcellulose) with no rock inhibitor, to further culture for 2 days before cardiac differentiation. To determine the number of cells per eiPSC spheroid, roughly equal numbers of the spheroids from either the 1 or 10 μM RI group were pooled together and trypsinized to dissociate the cells. The dissociated cells were then resuspended in 1.4 ml of the aforementioned iPSC maintenance medium and the cell number was counted using a hemocytometer. Three independent runs with 282, 260, and 256 spheroids for the 1 μM RI group and 273, 298, and 286 spheroids for the 10 μM RI group were conducted.
The eiPSC spheroids obtained after 4 days of culture on day 0 were induced into mesoderm by up-regulation of the Wnt signaling pathway using 8 μM CHIR99021 and 2 μM GSK inhibitor 6-bromoindirubin-3′-oxime (BIO) in the mesoderm induction medium for 1 day. The mesoderm induction medium was a mixture of DMEM/F12 and α-MEM (v/v, 1:1), containing 2% Knockout Serum Replacement (KOSR), 1 mM L-glutamine, 1% MEM non-essential amino acids (NEAA), and 0.1 mM β-mercaptoethanol. After 1 day, the spheroids were induced for cardiac commitment by down-regulating the Wnt signaling pathway using 10 μM KY02111 and 10 μM XAV939 in the cardiac maintenance medium for 6 days with the medium being changed every other day. The cardiac maintenance medium was a mixture of RPMI1640 and α-MEM (v/v, 1:1) containing 5% fetal bovine serum (FBS). Starting from day 8, the cardiac maintenance medium without KY02111 and XAV939 was used, and it was changed every other day for cardiac maturation. Images and videos of the resultant cardiac spheroids were taken using the Zeiss LSM 710 microscope before medium change.

[1] = test system: eiPSC-derived cardiac spheroids; test: Re-plating of cardiac spheroids in regular cell culture petri dish (attachment); assay type: cell-based, human; details: day 13.5 spheroids, 3 days after re-plating
Experimental: After 3 days, ˜61% of the cardiac spheroids in the 10 μM RI group attached to the 2D surface, and some of the cells migrated out of the spheroids appeared to be neuron-like with neurite-like processes (FIG. 4B-C). […] To confirm the aforementioned observation of neuron-like cells in the 10 μM RI group, immunofluorescence staining of cryosectioned cardiac spheroids on day 12.5 in the 1 and 10 μM RI groups was conducted. […] Therefore, studies were performed to further understand the mechanisms of the improved cardiac differentiation with the reduced RI.

[2] = test system: eiPSC-derived cardiac spheroids; test: Immunostaining of cryosectioned eiPSC-derived cardiac spheroids; assay type: cell-based, human; details: cardiac spheroids day 12.5
Experimental: The iPSC spheroids and the iPSC-derived Cardiac spheroids were fixed in 4% PFA in 1×PBS at 4° C. overnight. The fixed spheroids were incubated sequentially in 10% and 15% sucrose solutions in saline for 4 h, respectively. Afterward, the spheroids were put in a plastic box and embedded in OCT for cryosectioning. Slices of the spheroids of 10 μm thick were obtained by cutting the frozen sample on a Leica cryostat platform and then immediately attached onto the Leica Apex high adhesive glass slides.
For immunostaining, the slides were gently rinsed twice with 1×PBS to remove the OCT and then incubated with 0.1% Tween-20 and 5% normal goat serum in 1×PBS for 1 h at room temperature (RT) to block non-specific bindings. Later, the samples were incubated with primary antibodies at 4° C. overnight. The dilution and product information of the primary antibodies were as follows: OCT-4 (1:500 dilution, Cell Signaling Technologies), NANOG (1:500 dilution, Cell Signaling Technologies), SSEA-4 (1:500 dilution, Cell Signaling Technologies), cTnT (1:500 dilution, Cell Signaling Technologies), CONNEXIN-43 (CX-43, 1:400 dilution, Santa Cruz Biotechnology), DESMIN (1:500 dilution, Santa Cruz Biotechnology), α-ACTININ (1:500 dilution; Santa Cruz Biotechnology), BRACHYURY (1:500; Santa Cruz Biotechnology), NKX2.5 (1:500; Santa Cruz Biotechnology), NESTIN (1:500; R & D Systems), MUSASHI-1 (1:500; R & D Systems), and TUJ-1 (1:500; R & D Systems). Afterward, the samples were rinsed with 1×PBS thrice and then incubated with the associated secondary antibodies (goat anti-rabbit IgG FITC and goat-anti-mouse IgG PE, Invitrogen) in 1×PBS for 1.5 h at RT. Lastly, the samples were rinsed with 1 ml of 1×PBS for 3 min and the nuclei were stained with 1 μg/ml DAPI solution for 5 min at RT. The samples were imaged with the Zeiss LSM 710 microscope.

C[C@@H](N)[C@H]1CC[C@H](C(=O)Nc2ccncc2)CC1.Cl.Cl (relative stereo) [RI, (+)-(R)-trans-4-(1-aminoethyl)-N-(4-pyridyl) cyclo-hexanecarboxamide dihydrochloride]
beating efficiency of 3D cardiac differentiation (human eiPSCs; 1 μM RI, in about 7 days): more than 95%
percentage of beating cardiac spheroids (human eiPSCs; 1 μM RI, day 6.5): ~48%
percentage of beating cardiac spheroids (human eiPSCs; 5 μM RI, day 9.5): ~61%
beating efficiency of 3D cardiac differentiation (human eiPSCs; 10 μM RI, in 14 days): less than 50%
outset beating time (OBT) (human eiPSCs; 10 μM RI, day 6-6.5 to day 13.5): more than 7 days
percentage of beating cardiac spheroids (human eiPSCs; 10 μM RI, day 6.5): ~8%
percentage of beating cardiac spheroids (human eiPSCs; 10 μM RI, day 13.5, dihydrochloride): ~44% and 44.3%
percentage of cardiac spheroids attached to the 2D surface ([1]; 5 μM RI): ~41%
percentage of cardiac spheroids attached to the 2D surface ([1]; 10 μM RI, dihydrochloride): ~61% and > 60%
cells positive for WNT4 and CD44 ([2]; 1 μM RI): not the 1 μM RI group
expression of cTnT and CONNEXIN-43 (CX-43) ([2]; 1 μM RI): highly expressed
staining of neural lineage markers TUJ-1 and MUSASHI-1 ([2]; 1 μM RI): no evident staining
cells positive for WNT4 and CD44 ([2]; 10 μM RI): positive
expression of cTnT and CONNEXIN-43 (CX-43) ([2]; 10 μM RI): either weak (for cTnT) or barely visible (for CX-43)
staining of neural lineage markers TUJ-1 and MUSASHI-1 ([2]; 10 μM RI): positive
